Here are results for 20 compounds from PMC7993393, “8-Mercaptoguanine-based inhibitors of Mycobacterium tuberculosis dihydroneopterin aldolase: synthesis, in vitro inhibition and docking studies” (Journal of Enzyme Inhibition and Medicinal Chemistry, 2021).

The term IC50 denotes the concentration at which inhibition is half-maximal. One may read the melting point as the temperature of the solid-liquid transition.

For data set [1], the target named is T1, MtFolB (Mycobacterium tuberculosis, UniProt P9WNC5).
T1 construct: made in house
Put plainly: MtFolB aldolase activity inhibition, continuous fluorescence assay (IC50). It is filed as biochemical.

Data set [2] concerns the target 6-hydroxymethyl-7,8-dihydropterin pyrophosphokinase from S. aureus (SaHPPK). Details: method as in PMID 22276115. Particulars: read-out: IC50 against SaHPPK; cited from earlier work.
Another data set concerns SaFolB. Details: method as in PMID 15027862. Particulars: read-out: IC50 against SaFolB; cited from earlier work.
Data set [3] deals with T1, MtFolB. Description: Mode of inhibition and inhibition constants on MtFolB aldolase activity (Lineweaver-Burk). It is filed as biochemical. Particulars: towards DHNP; for Inhibition mode: Lineweaver-Burk plots; for Ki: enzyme-inhibitor complex, read-out: Kis; for Ki / Kii: 300 nM MtFolB; for Kii: enzyme-substrate-inhibitor complex.

T1 sequence (P9WNC5 whole entry): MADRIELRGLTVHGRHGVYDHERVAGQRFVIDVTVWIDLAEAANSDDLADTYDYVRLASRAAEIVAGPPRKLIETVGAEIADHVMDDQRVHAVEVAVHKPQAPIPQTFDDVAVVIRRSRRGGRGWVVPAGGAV

In turn, `Nc1nc2nc(S)[nH]c2c(=O)[nH]1` [8-MG (1), 8-mercaptoguanine] yielded an IC50 against MtFolB [1] of 300 nM. Moreover, in data set [2], the IC50 is 41000 nM. Besides, the 50% inhibitory concentration (IC50) in the data set on SaFolB is 1000 nM. In addition, on MtFolB [3], the Inhibition mode result is “Non-competitive”, the Ki came to 300 ± 100 nM and the Kii is listed as 0.6 ± 0.1 µM.

In turn, `Nc1nc2[nH]c(SCc3ccccc3)nc2c(=O)[nH]1` [Compound 2a, 2-Amino-8-(benzylthio)-1,9-dihydro-6H-purin-6-one] returned an IC50 on MtFolB [1] of 7100 nM.

For the compound `Nc1nc2[nH]c(SCc3ccc4ccccc4c3)nc2c(=O)[nH]1` [Compound 2b, 2-Amino-8-((naphthalen-2-ylmethyl)thio)-1,9-dihydro-6H-purin-6-one], the melting point was in the range of 286 to 287 °C. The compound further displayed an IC50 at MtFolB [1] of 1300 nM. Further, the “Improvement of activity (fold)” value on MtFolB [1] (IC50 compared to benzyl derivative 2a) is listed as “more than 5 fold”.

Compound `Nc1nc2[nH]c(SCc3ccccc3F)nc2c(=O)[nH]1` [Compound 2c, 2-Amino-8-((2-fluorobenzyl)thio)-1,9-dihydro-6H-purin-6-one] had a melting point of 289 to 290 °C. The compound further registered an IC50 at MtFolB [1] of 8000 nM.

Consider `Nc1nc2[nH]c(SCc3ccc(F)cc3)nc2c(=O)[nH]1` [Compound 2d, 2-Amino-8-((4-fluorobenzyl)thio)-1,9-dihydro-6H-purin-6-one], for which the melting point lay in the range of 299 to 300 °C. The compound further yielded an IC50 on MtFolB [1] of 8000 nM.

On to `Nc1nc2[nH]c(SCc3ccccc3Cl)nc2c(=O)[nH]1` [Compound 2e, 2-Amino-8-((2-chlorobenzyl)thio)-1,9-dihydro-6H-purin-6-one], for which 4200 nM corresponded to half-maximal inhibition against MtFolB [1] (IC50).

Regarding `Nc1nc2[nH]c(SCc3ccc(Cl)cc3)nc2c(=O)[nH]1` [Compound 2f, 2-Amino-8-((4-chlorobenzyl)thio)-1,9-dihydro-6H-purin-6-one], the melting point was in the range of 291 to 294 °C. The same compound had an IC50 against MtFolB [1] of 2200 nM.

In turn, `Nc1nc2[nH]c(SCc3ccc(Cl)c(Cl)c3)nc2c(=O)[nH]1` [Compound 2g] yielded a melting point of 290 to 291 °C. The same compound yielded an IC50 against MtFolB [1] of 5500 nM. Moreover, the IC50 fold higher at MtFolB [1] (IC50 compared to monosubstituted analog 2f) turned out to be 2.5 fold.

`Nc1nc2[nH]c(SCc3ccc(Br)cc3)nc2c(=O)[nH]1` [Compound 2h, 2-Amino-8-((4-bromobenzyl)thio)-1,9-dihydro-6H-purin-6-one] registered an IC50 on MtFolB [1] of 3000 nM.

Regarding `Nc1nc2[nH]c(SCC(=O)c3ccccc3)nc2c(=O)[nH]1` [Compound 3a, 2-Amino-8-((2-oxo-2-phenylethyl)thio)-1,9-dihydro-6H-purin-6-one], the melting point was > 310 °C. This compound displayed an IC50 against MtFolB [1] of 900 nM.

`Nc1nc2[nH]c(SCC(=O)c3ccc(Cl)cc3)nc2c(=O)[nH]1` [Compound 3b, 2-Amino-8-((2–(4-chlorophenyl)-2-oxoethyl)thio)-1,9-dihydro-6H-purin-6-one] returned a melting point of 300 to 316 °C. Besides, the IC50 at MtFolB [1] stood at 300 nM. In addition, on MtFolB [3], the Inhibition mode result is listed as “Non-competitive”, the Ki was found to be 400 ± 100 nM and the Kii worked out at 0.9 ± 0.2 µM.

For `COc1ccccc1C(=O)CSc1nc2nc(N)[nH]c(=O)c2[nH]1` [Compound 3c, 2-Amino-8-((2–(2-methoxyphenyl)-2-oxoethyl)thio)-1,9-dihydro-6H-purin-6-one], the IC50 on MtFolB [1] is 1300 nM.

On MtFolB [1], `Nc1nc2[nH]c(SCC(=O)Nc3ccccc3)nc2c(=O)[nH]1` [Compound 4a, 2-((2-Amino-6-oxo-6,9-dihydro-1H-purin-8-yl)thio)-N-phenylacetamide] displayed an IC50 of 2200 nM.

On to `Nc1nc2[nH]c(SCC(=O)Nc3ccc4ccccc4c3)nc2c(=O)[nH]1` [Compound 4b, 2-((2-Amino-6-oxo-6,9-dihydro-1H-purin-8-yl)thio)-N-(naphthalen-2-yl)acetamide], for which the melting point was in the range of 286 to 289 °C. Further, the IC50 on MtFolB [1] came out at 700 nM.

For the compound `Nc1nc2[nH]c(SCC(=O)NCc3ccccc3)nc2c(=O)[nH]1` [Compound 4c, 2-((2-Amino-6-oxo-6,9-dihydro-1H-purin-8-yl)thio)-N-benzylacetamide], the IC50 against MtFolB [1] stood at 12300 nM.

Regarding `Nc1nc2[nH]c(SCC(=O)Nc3ccc(F)cc3)nc2c(=O)[nH]1` [Compound 4d, 2-((2-Amino-6-oxo-6,9-dihydro-1H-purin-8-yl)thio)-N-(4-fluorophenyl)acetamide], the IC50 on MtFolB [1] was determined as 2000 nM.

In turn, `Nc1nc2[nH]c(SCC(=O)Nc3ccc(Cl)cc3)nc2c(=O)[nH]1` [Compound 4e, 2-((2-Amino-6-oxo-6,9-dihydro-1H-purin-8-yl)thio)-N-(4-chlorophenyl)acetamide] showed an IC50 against MtFolB [1] of 800 nM.

For `Nc1nc2[nH]c(SCC(=O)Nc3ccc(Br)cc3)nc2c(=O)[nH]1` [Compound 4f, 2-((2-Amino-6-oxo-6,9-dihydro-1H-purin-8-yl)thio)-N-(4-bromophenyl)acetamide], the melting point is > 310 °C. The compound further came in with an IC50 against MtFolB [1] of 500 nM. At MtFolB [3], the Inhibition mode result was “Competitive” and the Ki is 100 ± 30 nM.

On MtFolB [1], `CCCc1ccc(NC(=O)CSc2nc3c(=O)[nH]c(N)nc3[nH]2)cc1` [Compound 4g, 2-((2-Amino-6-oxo-6,9-dihydro-1H-purin-8-yl)thio)-N-(4-propylphenyl)acetamide] had an IC50 of 900 nM.

Turning to `CCCCCCCc1ccc(NC(=O)CSc2nc3c(=O)[nH]c(N)nc3[nH]2)cc1` [Compound 4h, 2-((2-Amino-6-oxo-6,9-dihydro-1H-purin-8-yl)thio)-N-(4-heptylphenyl)acetamide], the melting point is > 310 °C. Besides, the IC50 on MtFolB [1] was determined as 400 nM. Also, on MtFolB [3], the Inhibition mode entry is “Non-competitive”, the Ki stood at 500 ± 100 nM and the Kii is recorded as 1.2 ± 0.2 µM.
